Assay results taken from ChEMBL document CHEMBL1240419, “Synthesis and antibacterial activity of 3-O-carbamoyl derivatives of 6,11-di-O-methylerythromycin A: a novel class of acylides” (2010).
Converted amounts (≈) assume the structure as drawn.

How the values were obtained:
Type in all cases: functional
[1] = system: Streptococcus pneumoniae; assay: Antibacterial activity against erythromycin-resistant Streptococcus pneumoniae 3469 by broth microdilution method
[2] = system: Staphylococcus aureus; assay: Antibacterial activity against erythromycin, methicillin-resistant Staphylococcus aureus A333 by broth microdilution method
[3] = system: Haemophilus influenzae; assay: Antibacterial activity against ampicillin-susceptible Haemophilus influenzae ATCC 49247 by broth microdilution method
[4] = system: Staphylococcus aureus; assay: Antibacterial activity against erythromycin-resistant, methicillin-susceptible Staphylococcus aureus A265 by broth microdilution method
[5] = system: Streptococcus pneumoniae; assay: Antibacterial activity against erythromycin-susceptible Streptococcus pneumoniae ATCC 49619 by broth microdilution method
[6] = system: Staphylococcus aureus; assay: Antibacterial activity against erythromycin-susceptible Staphylococcus aureus ATCC 25923 by broth microdilution method
[7] = system: Haemophilus influenzae; assay: Antibacterial activity against ampicillin-resistant Haemophilus influenzae 3300 by broth microdilution method

SMILES	MIC [1] [µg/mL]	MIC [2] [µg/mL]	MIC [3] [µg/mL]	MIC [4] [µg/mL]	MIC [5] [µg/mL]	MIC [6] [µg/mL]	MIC [7] [µg/mL]
CC[C@H]1OC(=O)[C@H](C)[C@@H](OC(=O)NCCc2ccccc2Cl)[C@H](C)[C@@H](O[C@@H]2O[C@H](C)C[C@H](N(C)C)[C@H]2O)[C@](C)(OC)C[C@@H](C)C(=O)[C@@H](C)[C@@H](OC)[C@]1(C)O	0.125 (≈ 0.159 µM)	> 64	8 (≈ 10.2 µM)	1 (≈ 1.27 µM)	0.125 (≈ 0.159 µM)	4 (≈ 5.09 µM)	16 (≈ 20.4 µM)
CC[C@H]1OC(=O)[C@H](C)[C@@H](OC(=O)NCCc2ccccc2Br)[C@H](C)[C@@H](O[C@@H]2O[C@H](C)C[C@H](N(C)C)[C@H]2O)[C@](C)(OC)C[C@@H](C)C(=O)[C@@H](C)[C@@H](OC)[C@]1(C)O	8 (≈ 9.64 µM)	64 (≈ 77.1 µM)	8 (≈ 9.64 µM)	4 (≈ 4.82 µM)	0.125 (≈ 0.151 µM)	4 (≈ 4.82 µM)	4 (≈ 4.82 µM)
CC[C@H]1OC(=O)[C@H](C)[C@@H](O[C@H]2C[C@@](C)(OC)[C@@H](O)[C@H](C)O2)[C@H](C)[C@@H](O[C@@H]2O[C@H](C)C[C@H](N(C)C)[C@H]2O)[C@](C)(O)C[C@@H](C)CN(C)[C@H](C)[C@@H](O)[C@]1(C)O [AZITHROMYCIN]	4 (≈ 5.34 µM)	> 64	4 (≈ 5.34 µM)	8 (≈ 10.7 µM)	0.5 (≈ 0.668 µM)	0.5 (≈ 0.668 µM)	4 (≈ 5.34 µM)
CC[C@H]1OC(=O)[C@H](C)[C@@H](O[C@H]2C[C@@](C)(OC)[C@@H](O)[C@H](C)O2)[C@H](C)[C@@H](O[C@@H]2O[C@H](C)C[C@H](N(C)C)[C@H]2O)[C@](C)(OC)C[C@@H](C)C(=O)[C@H](C)[C@@H](O)[C@]1(C)O [CLARITHROMYCIN]	2 (≈ 2.67 µM)	> 64	8 (≈ 10.7 µM)	4 (≈ 5.35 µM)	0.25 (≈ 0.334 µM)	0.25 (≈ 0.334 µM)	8 (≈ 10.7 µM)
CC[C@H]1OC(=O)[C@H](C)[C@@H](O[C@H]2C[C@@](C)(OC)[C@@H](O)[C@H](C)O2)[C@H](C)[C@@H](O[C@@H]2O[C@H](C)C[C@H](N(C)C)[C@H]2O)[C@](C)(O)C[C@@H](C)C(=O)[C@H](C)[C@@H](O)[C@]1(C)O [ERYTHROMYCIN]	1 (≈ 1.36 µM)	> 64	16 (≈ 21.8 µM)	2 (≈ 2.73 µM)	0.25 (≈ 0.341 µM)	0.125 (≈ 0.17 µM)	16 (≈ 21.8 µM)
